Patent publication US5389616A, “Amino acid derivatives” (Hoffman-LaRoche Inc., priority 1988, dated 1995)

Target: T1, human renin (Homo sapiens, UniProt P00797)
T1 sequence (P00797 67-406): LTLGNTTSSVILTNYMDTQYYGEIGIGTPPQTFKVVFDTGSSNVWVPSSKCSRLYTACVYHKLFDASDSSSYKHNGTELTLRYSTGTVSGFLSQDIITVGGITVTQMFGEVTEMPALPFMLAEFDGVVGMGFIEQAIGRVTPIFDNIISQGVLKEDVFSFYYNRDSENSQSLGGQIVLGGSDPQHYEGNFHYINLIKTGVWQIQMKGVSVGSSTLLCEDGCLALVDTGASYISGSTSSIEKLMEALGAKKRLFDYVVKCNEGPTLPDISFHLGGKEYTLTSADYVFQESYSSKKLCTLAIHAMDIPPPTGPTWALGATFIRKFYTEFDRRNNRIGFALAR
Test: In vitro test with pure human renin
Format: biochemical
Conditions: human tetradecapeptide renin substrate (hTD), pH 7.4, incubated 3 hours at 37° C. or 4° C., angiotensin I production measured via RIA
Experimental: In vitro test with pure human renin
The test is carried out in Eppendorf test tubes. The incubation mixture consists of (1) 100μl of human renin in buffer A (0.1M sodium phosphate solution, pH 7.4, containing 0.1% bovine serum albumin, 0.1% sodium azide and 1 mM ethylenediaminetetraacetic acid), sufficient for a renin activity of 2--3 ng of angiotensin I/ml/hr.; (2) 145 μl of buffer A; (3) 30 μl of 10 μM human tetradecapeptide renin substrate (hTD) in 10 mM hydrochloric acid; (4) 15 μl of dimethyl sulphoxide with or without inhibitor and (5) 10 μl of a 0.03 molar solution of hydroxyquinoline sulphate in water.
The samples are incubated for 3 hours at 37° C. or 4° C. in triplicate. 2 ×100 μl samples per experimental test tube are used in order to measure the production of angiotensin I via RIA (standard radioimmunoassay; clinical assay solid phase kit). Cross reactivities of the antibody used in the RIA are: angiotensin I 100%; angiotensin II 0.0013%; hTD (angiotensin I-Val-Ile-His-Ser-OH) 0.09%. The production of angiotensin I is determined by the difference between the experiment at 37° C. and that at 4° C.
The following controls are carried out:
(a) Incubation of hTD samples without renin and without inhibitor at 37° C. and 4° C. The difference between these two values gives the base value of angiotensin I production.
(b) Incubation of hTD samples with renin, but without inhibitor at 37° C. and 4° C. The difference between these values gives the maximal-value of angiotensin I production.
In each sample the base value of the angiotensin I production is subtracted from the angiotensin I production which is determined. The difference between the maximal value and the base value gives the value of the maximal substrate hydrolysis (=100%) by renin.
The results are given as IC50 values which denote that concentration of the inhibitor at which the enzymatic activity is inhibited by 50%. The IC50 values are determined from a linear regression curve from a logit-log plot.

IC50 [nM] | Compound
170 | CC(C)(C)S(=O)(=O)C[C@@H](Cc1ccccc1)C(=O)N[C@@H](Cc1c[nH]cn1)C(=O)N[C@@H](CC1CCCCC1)[C@@H](O)[C@H](O)c1ccccc1 [E, (S)-α-[(S)-α-[(t-butylsulphonyl)methyl]hydrocinnamamido]-N-[(1S,2R,3R)-1-(cyclohexylmethyl)-2,3-dihydroxy-3-phenylpropyl]imidazole-4-propionamide]
2 | CC(C)(C)S(=O)(=O)C[C@@H](Cc1ccccc1)C(=O)N[C@@H](Cc1c[nH]cn1)C(=O)N[C@@H](CC1CCCCC1)[C@@H](O)[C@@H](O)C1CCCCC1 [H, (S)-α-[(S)-α-[(t-butylsulphonyl)methyl]hydrocinnamamido]-N-[(1S,2R,3S)-3-cyclohexyl-1-(cyclohexylmethyl)-2,3-dihydroxypropyl]imidazole-4-propionamide]
1 | CC(C)(C)C(=O)C[C@@H](Cc1ccccc1)C(=O)N[C@@H](Cc1c[nH]cn1)C(=O)N[C@@H](CC1CCCCC1)[C@@H](O)[C@@H](O)C1CCCCC1 [B, (S)-N-[(1S,2R,3S)-3-cyclohexyl-1-(cyclohexylmethyl)-2,3-dihydroxypropyl]-α-[(R)-α-(3,3-dimethyl-2-oxobutyl)-hydrocinnamamido]imidazole-4-propionamide]
24 | CCC(CC)C(O)[C@H](O)[C@H](CC1CCCCC1)NC(=O)[C@H](Cc1c[nH]cn1)NC(=O)[C@@H](CC(=O)C(C)(C)C)Cc1ccccc1 (mixture of isomers) [A, (S)-N-[(1S,2R,3RS)-1-(Cyclohexylmethyl)-4-ethyl-2,3-dihydroxyhexyl]-α-[(R)-α-(3,3-dimethyl-2-oxobutyl)hydrocinnamamido]imidazole-4-propionamide]
3 | CC(C)[C@H](O)[C@H](O)[C@H](CC1CCCCC1)NC(=O)[C@H](Cc1c[nH]cn1)NC(=O)[C@@H](CC(=O)C(C)(C)C)Cc1ccccc1 [C, (S)-N-[(1S,2R,3S)-1-(cyclohexylmethyl)-2,3-dihydroxy-4-methylpentyl]-α-[(R)-α-(3,3-dimethyl-2-oxobutyl)hydrocinnamamido]imidazole-4-propionamide]
38 | CC(C)(C)C(O)[C@H](O)[C@H](CC1CCCCC1)NC(=O)[C@H](Cc1c[nH]cn1)NC(=O)[C@H](Cc1ccccc1)CS(=O)(=O)C(C)(C)C (mixture of isomers) [F, (S)-α-[(S)-α-[(t-butylsulphonyl)methyl]hydrocinnamamido]-N-[(1S,2R,3RS)-1-(cyclohexylmethyl)-2,3-dihydroxy-4,4-dimethylpentyl]imidazole-4-propionamide]
7 | CC(C)(C)S(=O)(=O)C[C@@H](Cc1ccccc1)C(=O)N[C@@H](Cc1c[nH]cn1)C(=O)N[C@@H](CC1CCCCC1)[C@@H](O)[C@@H](O)c1ccccc1 [D, (S)-α-[(S)-α-[(t-butylsulphonyl)methyl]hydrocinnamamido]-N-[(1S,2R,3S)-1-(cyclohexylmethyl)-2,3-dihydroxy-3-phenylpropyl]imidazole-4-propionamide]
2 | CC(C)[C@H](O)[C@H](O)[C@H](CC1CCCCC1)NC(=O)[C@H](Cc1c[nH]cn1)NC(=O)[C@H](Cc1ccccc1)CS(=O)(=O)C(C)(C)C [G, (S)-α-[(S)-α-[(t-butylsulphonyl)methyl]hydrocinnamamido]-N-[(1S,2R,3S)-1-(cyclohexylmethyl)-2,3-dihydroxy-4-methylpentyl]imidazole-4-propionamide]
